Data as given in patent US20220152072A1, “Selective Inhibitors Of Protein Arginine Methyltransferase 5 (PRMT5)” (Prelude Therapeutics, Incorporated, priority 2019, published 2022).
One block for each compound: values may come before it.

Tests used:
[1] = In vivo pharmacokinetics in rat, i.v. and p.o.; details: rat (SD, male, non-fasted), average, N=3
Description: In a rat (SD, male, non-fasted) non-crossover PK study, Example 47 was dosed at 1 mg/kg (DMA: 20% HPBCD=5:95, solution) via i.v. administration (N=3) and 1 mg/kg (0.5% Na CMC+0.5% Tween80, solution) via oral gauge (p.o.) (N=3).

PRMT5/MEP50 complex = PRMT5/MEP50 complex (Homo sapiens, UniProt O14744); test: Biochemical assay: PRMT5/MEP50 methylation of histone H2A with 3H-SAM, filter plate scintillation; details: PRMT5/MEP50 5 nM, histone H2A 5 μM, SAM 1 μM
Description: Compounds were solubilized and 3-fold diluted in 100% DMSO. […] Standard reactions were performed in a total volume of 50 μl in assay buffer, with histone H2A (5 μM final) as substrate. To this was added the PRMT5/MEP50 complex diluted to provide a final assay concentration of 5 nM and the compounds were allowed to preincubate for 15 to 20 minutes at room temperature. The reaction was initiated by adding S-[3H-methyl]-adenosyl-L-methionine (PerkinElmer) to final concentration of 1 μM. Following a 60 minutes incubation at 30° C., the reaction was stopped by adding 100 μL of 20% TCA. Each reaction was spotted onto filter plate (MultiScreen FB Filter Plate, Millipore), and washed 5 times with PBS buffer, Scintillation fluid was added to the filter plate and read in a scintillation counter. IC50 values were determined by fitting the data to the standard 4 parameters with Hill Slope using GraphPad Prism software.

FaSSIF solubility (HPLC) = details: positive control, range
Description: Compounds were first dispersed in freshly prepared FaSSIF (http://biorelevant.com/site_media/upload/documents/How_to_make_FaSSIF_FeSSIF_and_FaSSGF.pdf) buffer in 1 mg/mL respectively, and the standard samples were prepared by preparing 1 mg/mL of test compounds in DMSO. The compounds were then sufficient mixed by vortex mixer for 30 sec, and agitated at 25° C. using 300 rpm form 4 hour in thermo mixer. After incubation, the prepared samples were centrifuged at 10000 rpm for 10 min to remove the undissolved solid, the resulting supernatants were applied to HPLC.
S=Csmp=Cstd*(Asmp/Astd)*(Vstd/Vsmp)
Where C is the sample concentration in μg/mL, A is the peak area, and V is the injection volume.

Chain of PRMT5/MEP50 complex (O14744 whole entry, species assumed): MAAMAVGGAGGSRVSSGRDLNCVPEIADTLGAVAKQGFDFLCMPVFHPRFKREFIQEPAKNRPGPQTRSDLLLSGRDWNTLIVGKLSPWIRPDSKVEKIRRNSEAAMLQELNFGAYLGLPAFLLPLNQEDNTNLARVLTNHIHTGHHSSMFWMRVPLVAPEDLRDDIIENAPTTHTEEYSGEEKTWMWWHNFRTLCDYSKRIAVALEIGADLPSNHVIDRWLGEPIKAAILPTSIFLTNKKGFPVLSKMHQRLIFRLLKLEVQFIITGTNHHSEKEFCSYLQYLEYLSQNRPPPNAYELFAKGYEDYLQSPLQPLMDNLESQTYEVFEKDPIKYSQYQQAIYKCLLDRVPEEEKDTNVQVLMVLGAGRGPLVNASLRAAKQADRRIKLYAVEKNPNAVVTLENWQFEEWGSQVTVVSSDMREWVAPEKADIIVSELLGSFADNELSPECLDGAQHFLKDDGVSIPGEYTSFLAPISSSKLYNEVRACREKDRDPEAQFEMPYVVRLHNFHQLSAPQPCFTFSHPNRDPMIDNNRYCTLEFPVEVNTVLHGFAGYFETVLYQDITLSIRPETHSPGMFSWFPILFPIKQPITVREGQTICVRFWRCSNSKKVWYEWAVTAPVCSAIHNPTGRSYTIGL
Chain of PRMT5/MEP50 complex (Q9BQA1 whole entry partner, species assumed): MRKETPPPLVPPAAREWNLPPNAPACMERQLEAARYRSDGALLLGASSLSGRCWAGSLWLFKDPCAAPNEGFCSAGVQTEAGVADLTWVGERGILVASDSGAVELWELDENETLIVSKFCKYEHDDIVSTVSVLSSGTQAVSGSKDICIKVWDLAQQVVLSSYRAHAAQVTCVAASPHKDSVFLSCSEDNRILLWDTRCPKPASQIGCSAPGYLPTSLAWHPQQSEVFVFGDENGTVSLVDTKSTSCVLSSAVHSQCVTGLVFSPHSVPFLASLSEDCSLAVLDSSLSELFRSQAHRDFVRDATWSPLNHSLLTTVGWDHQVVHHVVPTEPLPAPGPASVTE

- T1/2 ([1]; 1 mg/kg i.v.): 4.1 h
- Vss ([1]; 1 mg/kg i.v.): 3.1 L/kg
- blood clearance ([1]; 1 mg/kg i.v.): 8.8 mL/min/kg
- dose normalized AUC ([1]; 1 mg/kg p.o.): 3246 ng·kg·h/mL/mg
Compound: C[C@@]1(O)[C@@H]([C@H](O)c2ccc(Cl)c(Cl)c2)O[C@@H](n2ccc3c(N)ncnc32)[C@@H]1O [Example 47, (2R,3S,4R,5R)-5-(4-amino-7H-pyrrolo[2,3-d]pyrimidin-7-yl)-2-((R)-(3,4-dichlorophenyl) (hydroxy)methyl)-3-methyltetrahydrofuran-3,4-diol]

- IC50 (PRMT5/MEP50 complex): 0.707 µM
Compound: C[C@@]1(O)[C@@H]([C@@H](O)c2ccc(Cl)c(Cl)c2)O[C@@H](n2ccc3c(N)ncnc32)[C@@H]1O [Example 66, (2R,3S,4R,5R)-5-(4-amino-7H-pyrrolo[2,3-d]pyrimidin-7-yl)-2-((S)-(3,4-dichlorophenyl) (hydroxy)methyl)-3-methyltetrahydrofuran-3,4-diol]

- FaSSIF solubility (positive controls) (FaSSIF solubility (HPLC)): 10 to 25 µg/mL
Compound: CC(=O)CC(c1ccccc1)c1c(O)c2ccccc2oc1=O (stereo not drawn) [Warfarin]
